Measured values published in ChEMBL document CHEMBL3217456 (Medchemcomm, 2014).
Activity calls are given as the source filed them. The rule behind the calls is not given here.

How the values were obtained:
[1] = biological target: Histamine H2 receptor (Cavia porcellus) (UniProt P47747); assay: Agonist activity at guinea pig histamine H2 receptor assessed as potentiation of histamine-induced response at 30 uM after 30 mins relative to histamine
[2] = biological target: T1, Histamine H2 receptor (Cavia porcellus, UniProt P47747); assay: (§1) Antagonist activity at guinea pig histamine H2 receptor assessed as inhibition of histamine-induced response after 30 mins; details: read-out: pA2 (converted)
T1 sequence (P47747 whole entry): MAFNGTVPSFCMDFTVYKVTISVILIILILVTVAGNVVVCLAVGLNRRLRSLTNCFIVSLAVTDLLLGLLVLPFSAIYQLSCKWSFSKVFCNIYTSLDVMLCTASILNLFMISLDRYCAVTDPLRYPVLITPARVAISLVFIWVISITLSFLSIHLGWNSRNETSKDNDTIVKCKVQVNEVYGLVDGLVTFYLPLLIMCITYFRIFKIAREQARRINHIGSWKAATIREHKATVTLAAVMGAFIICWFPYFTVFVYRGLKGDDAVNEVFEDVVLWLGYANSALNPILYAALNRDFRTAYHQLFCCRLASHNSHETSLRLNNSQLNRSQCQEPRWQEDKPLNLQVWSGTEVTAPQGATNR

[3] = biological target: T2, Histamine H3 receptor (Homo sapiens, UniProt Q9Y5N1); assay: Antagonist activity at human recombinant histamine H3 receptor expressed in Sf9 cells coexpressing Galphai2,Gbeta1gamma2 and RGS4 assessed as inhibition of histamine-induced […] hydrolysis preincubated for 2 mins before [gamma32P]GTP addition measured after 20 mins by steady-state GTPase activity assay; assay type: functional
T2 sequence (Q9Y5N1 whole entry, the tested form may be a part): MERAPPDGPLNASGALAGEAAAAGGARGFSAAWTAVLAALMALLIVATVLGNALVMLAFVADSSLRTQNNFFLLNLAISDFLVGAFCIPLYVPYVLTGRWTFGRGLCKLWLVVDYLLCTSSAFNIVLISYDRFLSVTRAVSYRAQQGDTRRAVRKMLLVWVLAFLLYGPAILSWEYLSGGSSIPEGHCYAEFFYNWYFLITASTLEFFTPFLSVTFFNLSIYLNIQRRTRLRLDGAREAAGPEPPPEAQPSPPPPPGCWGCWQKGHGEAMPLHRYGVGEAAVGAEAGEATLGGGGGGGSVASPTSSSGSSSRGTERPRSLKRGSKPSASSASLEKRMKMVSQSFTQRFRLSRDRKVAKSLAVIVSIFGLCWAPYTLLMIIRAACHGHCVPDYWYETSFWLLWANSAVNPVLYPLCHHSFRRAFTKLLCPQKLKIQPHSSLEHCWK

[4] = biological target: T3, Histamine H2 receptor (Homo sapiens, UniProt P25021); assay: (§2) Antagonist activity at human recombinant histamine H2 receptor-Gsalphas fusion protein expressed in Sf9 cells assessed as inhibition of histamine-induced […] hydrolysis preincubated for 2 mins before [gamma32P]GTP addition measured after 20 mins by steady-state GTPase activity assay; assay type: functional
T3 sequence (P25021 whole entry, the tested form may be a part): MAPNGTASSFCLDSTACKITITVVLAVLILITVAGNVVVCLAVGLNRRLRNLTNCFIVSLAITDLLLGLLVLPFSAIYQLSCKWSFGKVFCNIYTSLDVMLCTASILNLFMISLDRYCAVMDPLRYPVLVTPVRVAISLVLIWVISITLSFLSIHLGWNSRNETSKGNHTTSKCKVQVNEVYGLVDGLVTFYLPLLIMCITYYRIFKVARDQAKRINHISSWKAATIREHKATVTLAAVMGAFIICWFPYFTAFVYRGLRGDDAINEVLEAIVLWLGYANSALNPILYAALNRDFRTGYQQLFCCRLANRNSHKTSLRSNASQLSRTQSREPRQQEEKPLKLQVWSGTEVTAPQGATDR

[5] = biological target: Histamine H1 receptor (Homo sapiens) (UniProt P35367); assay: Antagonist activity at human recombinant histamine H1 receptor expressed in Sf9 cells coexpressing RGS4 assessed as inhibition of histamine-induced […] hydrolysis preincubated for 2 mins before [gamma32P]GTP addition measured after 20 mins by steady-state GTPase activity assay; assay type: functional
Sequence of Histamine H1 receptor (Homo sapiens) (P35367 whole entry, the tested form may be a part): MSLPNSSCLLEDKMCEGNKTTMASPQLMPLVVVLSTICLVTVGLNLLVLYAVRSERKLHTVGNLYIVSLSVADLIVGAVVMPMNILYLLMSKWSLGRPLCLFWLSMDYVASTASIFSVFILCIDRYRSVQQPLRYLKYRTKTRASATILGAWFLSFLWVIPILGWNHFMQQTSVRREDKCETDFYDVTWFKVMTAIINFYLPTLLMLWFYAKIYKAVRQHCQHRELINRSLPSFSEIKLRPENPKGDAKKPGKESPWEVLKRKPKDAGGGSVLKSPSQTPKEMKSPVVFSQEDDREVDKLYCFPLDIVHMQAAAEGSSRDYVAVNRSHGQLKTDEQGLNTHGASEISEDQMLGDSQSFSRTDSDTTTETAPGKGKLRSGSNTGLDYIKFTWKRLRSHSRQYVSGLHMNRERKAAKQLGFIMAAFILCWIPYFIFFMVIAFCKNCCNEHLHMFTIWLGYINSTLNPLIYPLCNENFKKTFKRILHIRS

[6] = biological target: T4, Histamine H4 receptor (Homo sapiens, UniProt Q9H3N8); assay: Intrinsic activity at human recombinant histamine H4 receptor-RGS19 fusion protein expressed in Sf9 cells coexpressing Galphai2,Gbeta1gamma2 preincubated for 2 mins before [gamma32P]GTP addition measured after 20 mins by steady-state GTPase activity assay relative to histamine
T4 sequence (Q9H3N8 whole entry, the tested form may be a part): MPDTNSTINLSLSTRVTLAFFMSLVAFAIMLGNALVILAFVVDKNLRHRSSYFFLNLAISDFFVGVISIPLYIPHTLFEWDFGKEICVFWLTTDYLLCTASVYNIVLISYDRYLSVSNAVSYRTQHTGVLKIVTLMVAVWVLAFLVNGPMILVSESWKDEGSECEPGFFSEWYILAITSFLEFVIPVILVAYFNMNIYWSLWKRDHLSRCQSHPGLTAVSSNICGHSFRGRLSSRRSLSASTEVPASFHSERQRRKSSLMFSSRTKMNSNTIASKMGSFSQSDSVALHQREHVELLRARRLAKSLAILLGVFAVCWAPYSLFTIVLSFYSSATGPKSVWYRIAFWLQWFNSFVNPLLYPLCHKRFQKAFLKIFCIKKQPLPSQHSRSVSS

[7] = biological target: T2, Histamine H3 receptor; assay: Intrinsic activity at human recombinant histamine H3 receptor expressed in Sf9 cells coexpressing Galphai2,Gbeta1gamma2 and RGS4 preincubated for 2 mins before [gamma32P]GTP addition measured after 20 mins by steady-state GTPase activity assay relative to histamine
[8] = biological target: T3, Histamine H2 receptor; assay: Intrinsic activity at human recombinant histamine H2 receptor-Gsalphas fusion protein expressed in Sf9 cells preincubated for 2 mins before [gamma32P]GTP addition measured after 20 mins by steady-state GTPase activity assay relative to histamine
[9] = biological target: Histamine H1 receptor (Homo sapiens) (UniProt P35367); assay: Intrinsic activity at human recombinant histamine H1 receptor expressed in Sf9 cells coexpressing RGS4 preincubated for 2 mins before [gamma32P]GTP addition measured after 20 mins by steady-state GTPase activity assay relative to histamine
[10] = biological target: T4, Histamine H4 receptor; assay: Agonist activity at human recombinant histamine H4 receptor-RGS19 fusion protein expressed in Sf9 cells coexpressing Galphai2,Gbeta1gamma2 preincubated for 2 mins before [gamma32P]GTP addition measured after 20 mins by steady-state GTPase activity assay
[11] = biological target: Histamine H2 receptor (Cavia porcellus) (UniProt P47747); assay: Antagonist activity at guinea pig histamine H2 receptor assessed as reduction of histamine-induced maximal response after 30 mins
[12] = biological target: Histamine H2 receptor (Cavia porcellus) (UniProt P47747); assay: Agonist activity at guinea pig histamine H2 receptor assessed as potentiation of histamine-induced response after 30 mins relative to histamine
[13] = biological target: T1, Histamine H2 receptor; assay: Agonist activity at guinea pig atrium histamine H2 receptor assessed as potentiation of histamine-induced response after 30 mins; set-up: species or system Cardiac atrium
[14] = biological target: Histamine H1 receptor (Cavia porcellus, UniProt P31389); assay: Antagonist activity at guinea pig ileum histamine H1 receptor assessed as inhibition of histamine-induced response after 10 to 15 mins; assay type: tissue-based; details: read-out: pA2 (converted)
Sequence of Histamine H1 receptor (P31389 whole entry, the tested form may be a part): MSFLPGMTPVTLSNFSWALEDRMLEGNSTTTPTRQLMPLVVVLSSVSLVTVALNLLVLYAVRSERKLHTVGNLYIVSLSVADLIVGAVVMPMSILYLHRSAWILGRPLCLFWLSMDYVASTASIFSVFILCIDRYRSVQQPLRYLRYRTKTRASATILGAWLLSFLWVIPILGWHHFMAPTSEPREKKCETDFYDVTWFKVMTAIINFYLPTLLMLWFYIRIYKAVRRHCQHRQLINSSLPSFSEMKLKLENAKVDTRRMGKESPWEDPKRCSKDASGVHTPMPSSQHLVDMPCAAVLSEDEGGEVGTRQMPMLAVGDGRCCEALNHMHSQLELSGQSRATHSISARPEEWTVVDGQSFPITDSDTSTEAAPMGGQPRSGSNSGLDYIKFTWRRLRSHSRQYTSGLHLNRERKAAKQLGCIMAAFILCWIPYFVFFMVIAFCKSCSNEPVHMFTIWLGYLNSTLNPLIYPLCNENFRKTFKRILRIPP

[15] = biological target: T3, Histamine H2 receptor; assay: Agonist activity at human recombinant histamine H2 receptor-Gsalphas fusion protein expressed in Sf9 cells preincubated for 2 mins before [gamma32P]GTP addition measured after 20 mins by steady-state GTPase activity assay
[16] = biological target: T2, Histamine H3 receptor; assay: Antagonist activity at human recombinant histamine H3 receptor expressed in Sf9 cells coexpressing Galphai2,Gbeta1gamma2 and RGS4 assessed as inhibition of histamine-induced [35S]GTPgammaS binding after 90 mins by liquid scintillation counting; assay type: functional
[17] = biological target: T2, Histamine H3 receptor; assay: Intrinsic activity at human recombinant histamine H3 receptor expressed in Sf9 cells coexpressing Galphai2,Gbeta1gamma2 and RGS4 assessed as [35S]GTPgammaS binding at 10 uM after 90 mins by liquid scintillation counting relative to histamine; assay type: functional
[18] = biological target: T4, Histamine H4 receptor; assay: Agonist activity at human recombinant histamine H4 receptor-RGS19 fusion protein expressed in Sf9 cells coexpressing Galphai2,Gbeta1gamma2 assessed as [35S]GTPgammaS binding after 90 mins by liquid scintillation counting; assay type: functional
[19] = biological target: T3, Histamine H2 receptor; assay: Agonist activity at human recombinant histamine H2 receptor-Gsalphas fusion protein expressed in Sf9 cells assessed as [35S]GTPgammaS binding after 90 mins by liquid scintillation counting; assay type: functional
[20] = biological target: T4, Histamine H4 receptor; assay: as §2, with “H4 receptor-RGS19” for “H2 receptor-Gsalphas”, “cells coexpressing Galphai2,Gbeta1gamma2” for “cells”; assay type: functional
[21] = biological target: T2, Histamine H3 receptor; assay: Agonist activity at human recombinant histamine H3 receptor expressed in Sf9 cells coexpressing Galphai2,Gbeta1gamma2 and RGS4 assessed as [35S]GTPgammaS binding after 90 mins by liquid scintillation counting; assay type: functional
[22] = biological target: Histamine H1 receptor (Homo sapiens) (UniProt P35367); details: Sf9
[23] = biological target: T4, Histamine H4 receptor; assay: Antagonist activity at human recombinant histamine H4 receptor-RGS19 fusion protein expressed in Sf9 cells coexpressing Galphai2,Gbeta1gamma2 assessed as inhibition of histamine-induced [35S]GTPgammaS binding after 90 mins by liquid scintillation counting; assay type: functional
[24] = biological target: T4, Histamine H4 receptor; assay: Intrinsic activity at human recombinant histamine H4 receptor-RGS19 fusion protein expressed in Sf9 cells coexpressing Galphai2,Gbeta1gamma2 assessed as [35S]GTPgammaS binding at 10 uM after 90 mins by liquid scintillation counting relative to histamine; assay type: functional
[25] = biological target: T1, Histamine H2 receptor; assay: Agonist activity at guinea pig histamine H2 receptor assessed as potentiation of histamine-induced response at after 30 mins
[26] = Selectivity ratio of EC50 for human recombinant histamine H1 receptor expressed in Sf9 cells coexpressing RGS4 to EC50 for human recombinant histamine H4 receptor-RGS19 fusion protein expressed in Sf9 cells coexpressing Galphai2,Gbeta1gamma2
[27] = Selectivity ratio of EC50 for human recombinant histamine H2 receptor-Gsalphas fusion protein expressed in Sf9 cells to EC50 for human recombinant histamine H4 receptor-RGS19 fusion protein expressed in Sf9 cells coexpressing Galphai2,Gbeta1gamma2
[28] = Selectivity ratio of EC50 for human recombinant histamine H3 receptor expressed in Sf9 cells coexpressing Galphai2,Gbeta1gamma2 and RGS4 to EC50 for human recombinant histamine H4 receptor-RGS19 fusion protein expressed in Sf9 cells coexpressing Galphai2,Gbeta1gamma2
[29] = biological target: T3, Histamine H2 receptor; assay: Antagonist activity at human recombinant histamine H2 receptor-Gsalphas fusion protein expressed in Sf9 cells assessed as inhibition of histamine-induced [35S]GTPgammaS binding after 90 mins by liquid scintillation counting; assay type: functional
[30] = biological target: T3, Histamine H2 receptor; assay: Intrinsic activity at human recombinant histamine H2 receptor-Gsalphas fusion protein expressed in Sf9 cells assessed as [35S]GTPgammaS binding at 10 uM after 90 mins by liquid scintillation counting relative to histamine; assay type: functional
[31] = biological target: Histamine H2 receptor (Cavia porcellus) (UniProt P47747); assay: as §1
[32] = biological target: Histamine H2 receptor (Cavia porcellus) (UniProt P47747); assay: Agonist activity at guinea pig histamine H2 receptor assessed as potentiation of histamine-induced response at 10 uM after 30 mins relative to histamine

Sequence of Histamine H2 receptor (Cavia porcellus) (P47747 whole entry): as the sequence (P47747 whole entry) above

| SMILES | pKb [3] | pKb [4] | pKb [5] | Intrinsic activity [7] | Intrinsic activity [8] | Intrinsic activity [9] | Kb [14] | pKb [20] | further results |
| --- | --- | --- | --- | --- | --- | --- | --- | --- | --- |
| CC(CC(=O)/N=C(\N)NCCCc1ncc[nH]1)c1ccccc1 (stereo not given) | 5.41 | 5.3 | < 5 | -0.32 | 0.03 | 0.09 |  |  | Emax [1]: 54%; Kb [2]: 12.6 µM; Intrinsic activity [6]: 0.35; EC50 [10]: 2.88 µM; pD'2 [11]: 4.44 |
| N/C(=N\C(=O)CC(c1ccccc1)c1ccccc1)NCCCc1ncn[nH]1 | < 5 |  | < 5 | -0.03 | 0.42 | 0.06 | 1.62 µM |  | Efficacy [12]: 83%; EC50 [13]: 0.204 µM; pEC50 [10]: inactive; EC50 [15]: 0.407 µM |
| CN/C(=N\C#N)NCCCNc1nccc(N)n1 |  |  | < 5 |  |  | 0.03 |  |  | pKb [16]: < 5; Intrinsic activity [17]: -0.24; pEC50 [18]: inactive; pEC50 [19]: inactive |
| CC(CC(=O)/N=C(\N)NCCCc1ncc[nH]1)c1cccs1 (stereo not given) | 5.35 | 5.26 |  | -0.46 | 0.04 |  |  |  | Intrinsic activity [6]: 0.5; EC50 [10]: 0.776 µM |
| CC(CC(=O)/N=C(\N)NCCCc1cn[nH]c1)c1ccccc1 (stereo not given) | < 5 |  | < 5 | 0.04 | 0.44 |  | 3.8 µM | < 5 | Efficacy [12]: 54%; EC50 [13]: 0.468 µM; EC50 [15]: 0.24 µM |
| CN/C(=N\C#N)NCCCCNc1nc(N)n[nH]1 |  |  |  |  |  |  |  |  | pEC50 [18]: inactive; pEC50 [19]: inactive; pEC50 [21]: inactive; pEC50 [22]: inactive |
| CN/C(=N\C#N)NCCCNc1ccccn1 |  |  |  |  |  |  |  |  | pKb [23]: < 5; pKb [16]: < 5; Intrinsic activity [24]: -0.13; Intrinsic activity [17]: -0.03; pEC50 [19]: inactive; pEC50 [22]: inactive |
| CC(CC(=O)/N=C(\N)NCCCc1ncn[nH]1)c1ccccc1 (stereo not given) | < 5 |  | < 5 | -0.03 | 0.66 |  | 1.48 µM |  | Efficacy [12]: 100%; Kb [2]: 0.479 µM; pEC50 [10]: inactive; EC50 [15]: 0.741 µM; EC50 [25]: 0.1 µM |
| N/C(=N\C(=O)CC(c1ccccc1)c1ccccc1)NCCCc1cn[nH]c1 | < 5 | 5.42 | 5.06 | -0.02 | 0.08 | 0.06 | 2.57 µM | < 5 | Efficacy [12]: 41%; EC50 [13]: 0.363 µM |
| Cc1[nH]cnc1CCCCN/C(=N\C#N)NCCSc1ccccc1 |  |  | < 5.3 |  |  | -0.03 |  |  | Ratio EC50 [26]: > 10; Ratio EC50 [27]: > 10; Ratio EC50 [28]: > 10; pKb [16]: 5.5; pKb [29]: 5.36; Intrinsic activity [24]: 0.37; Intrinsic activity [17]: -0.65; Intrinsic activity [30]: -0.06; EC50 [18]: 0.245 µM |
| CN/C(=N\C#N)NCCNc1nccc(N)n1 |  |  |  |  |  |  |  |  | pKb [23]: < 5; pKb [16]: < 5; Intrinsic activity [24]: -0.11; Intrinsic activity [17]: -0.16; pEC50 [19]: inactive; pEC50 [22]: inactive |
| CC(CC(=O)/N=C(\N)NCCCc1cccnc1)c1ccccc1 (stereo not given) | < 5 | 5.27 | < 5 | -0.01 | -0.11 |  |  | < 5 | Kb [2]: > 31.6 µM; pD'2 [11]: 4.22 |
| CC(CC(=O)/N=C(\N)NCCCc1ccccn1)c1ccccc1 (stereo not given) | < 5 |  | 5.34 | -0.17 | 0.3 | 0.21 |  | < 5 | Efficacy [12]: 26%; EC50 [13]: 0.195 µM; EC50 [15]: 0.832 µM |
| Cc1nc(N)sc1CCCNC(=N)NC(=O)CC(C)c1ccccc1 (stereo not given) |  |  |  |  |  |  |  |  | Kb [2]: > 31.6 µM; pD'2 [11]: < 4.5 |
| CC(CC(=O)/N=C(\N)NCCCn1ccnc1)c1ccccc1 (stereo not given) | < 5 | < 5 | < 5 | -0.05 |  |  | 1.12 µM |  | Emax [1]: 69%; Kb [2]: > 31.6 µM; Intrinsic activity [6]: 0.77; EC50 [10]: 1 µM; pD'2 [11]: 4.16 |
| CC(CC(=O)/N=C(\N)NCCCc1ccncc1)c1ccccc1 (stereo not given) | < 5 | 5.54 | < 5 | -0.07 | 0 | 0.12 |  | < 5 | pD2 [31]: 4.54; Kb [2]: 19.1 µM; pD'2 [11]: 4.54 |
| Cc1nc(CCCCN/C(=N\C#N)NCCSc2ccccc2)c[nH]1 |  |  | < 5.3 |  |  | -0.01 |  |  | pKb [23]: 6.21; pKb [16]: < 5; Intrinsic activity [24]: -0.24; Intrinsic activity [17]: -0.47; Intrinsic activity [30]: -0.05; EC50 [19]: 16.2 µM |
| N/C(=N\C(=O)CC(c1ccccc1)c1ccccc1)NCCCn1ccnc1 | < 5 | 5.82 | < 5 | -0.07 | -0.07 | 0.01 | 2.34 µM | < 5 |  |
| CN/C(=N/C#N)NCCCCc1cnn[nH]1 |  |  |  |  |  |  |  |  | pEC50 [18]: inactive; pEC50 [19]: inactive; pEC50 [21]: inactive; pEC50 [22]: inactive |
| CC(CC(=O)/N=C(\N)NCCCc1ccc(CN(C)C)o1)c1ccccc1 (stereo not given) | 5.92 | 6.52 | < 5 | -0.64 | -0.12 | 0.04 | 3.02 µM | < 5 | Efficacy [12]: 0%; Emax [32]: 68% |
| CN/C(=N\C#N)NCCCCNc1ccccn1 |  |  | < 5 |  |  | 0.03 |  |  | pKb [23]: < 5; pKb [16]: < 5; Intrinsic activity [24]: -0.11; Intrinsic activity [17]: -0.1; pEC50 [19]: inactive |
